Test results as given in US20130115181A1, “AQUEOUS PHARMACEUTICAL SYSTEM FOR THE ADMINISTRATION OF DRUGS TO THE NAILS” (UNIVERSIDADE DE SANTIAGO DE COMPOSTELA, priority 2010, published 2013).

Tests used:
[1] = Penetration of triamcinolone acetonide through calf hoof, Franz-Chien cells; assay type: in vitro ADME; details: solutions in the absence of N-acetylcysteine
Description: For the preparation of thermosensitive systems used in penetration studies through the nail we proceeded as it follows:
1.—Dispersion of the Pluronic F127NF at 10 or 20% (depending on the formulation) in cold water with magnetic stirring until complete dissolution.
2.—Incorporation of triamcinolone acetonide in quantities for concentrations close to saturation (see FIG. 1). […]
In the formulations containing partially methylated β-cyclodextrin, it was incorporated into the system at concentrations of 10% prior to the dissolution of triamcinolone acetonide in order to increase aqueous concentration of the drug (see FIG. 1).
To perform the penetration studies, cylindrical thin slices of calf hoof membrane (0.8-1 mm) were used. The bovine hoof samples were placed using two Teflon adapters between the donor and acceptor compartment of vertical Franz-Chien penetration cells. In the receptor compartment, phosphate buffer (pH 7.4) was added and maintained at 37° C. 1 g of the thermosensitive systems was placed into the […]. Samples from receptor solution were collected at scheduled time, determining the concentration of triamcinolone acetonide by HPLC. The results were normalized by the diffusion surface and the thickness of the calf hoof slides used.

[2] = Triamcinolone acetonide solubility in Pluronic F127NF / cyclodextrin systems; assay type: physicochemical; details: systems with Pluronic F127NF, HPB or MBCD; 25° C.
Protocol: Aqueous dispersions of Pluronic F127NF containing a 0.10 and 15%, were prepared by stirring the polymer in water at 4° C. to study the incorporation of the drug. Hydroxypropyl-β-cyclodextrin or partially methylated β-cyclodextrin at concentrations of 0, 0.5% and 10% were also incorporated. Triamcinolone acetonide was added in amounts that far exceeded its aqueous solubility and was stirred at 25° C. for a week. The amount of dissolved triamcinolone was determined spectrophotometrically after filtering the dispersions through a membrane filter of 0.45 micron pore size.

[3] = Ciclopirox olamine solubility in Pluronic F127NF / cyclodextrin systems; assay type: physicochemical; details: systems with Pluronic F127NF, HPB or MBCD; 25° C.
Protocol: Dispersions of Pluronic F127NF (0, 10 and 15%) were prepared incorporating hydroxypropyl-β-cyclodextrin or partially methylated β-cyclodextrin at concentrations of 0, 0.5% and 10%. Ciclopirox olamine was added in amounts that far exceeded its aqueous solubility and was stirred at 25° C. for a week. The amount of dissolved ciclopirox was determined spectrophotometrically after filtering the dispersions. Pluronic F127NF dispersions containing 10% of hydroxypropyl-β-cyclodextrin or partially methylated β-cyclodextrin (5% or 10%) and N-acetylcysteine (5-10%) or urea (10-20%) has been studied.

[4] = Penetration of ciclopirox olamine through calf hoof, Franz-Chien cells; assay type: in vitro ADME; details: solutions in the absence of N-acetylcysteine
Protocol: Thermosensitive systems used in penetration studies were prepared as it follows:
1.—Dispersion of the Pluronic F127NF to 20% in cold water with magnetic stirring until complete dissolution.
2.- Ciclopirox olamine was incorporated in adequate quantities for concentrations close to saturation (see FIG. 3). […]
In the formulations prepared with partially methylated β-cyclodextrin, it was incorporated into the system at a concentration of 10% prior to the dissolution of triamcinolone acetonide, allowing soluble increasing doses of the drug (see FIG. 3).
Penetration studies were performed with cylindrical thin slices of calf hoof membrane (0.8-1 mm). The bovine hoof samples were placed using two Teflon adapters between the donor and acceptor compartment of vertical Franz-Chien penetration cells. In the receptor compartment, phosphate buffer (pH 7.4) was added and maintained at 37° C. 1 g of the thermosensitive systems was placed into the […]. […] The medium extracted was replaced with the same amount of buffer. The results were normalized by the diffusion surface and the thickness of the calf hoof slides used.

With `CC1(C)O[C@@H]2C[C@H]3[C@@H]4CCC5=CC(=O)C=C[C@]5(C)[C@@]4(F)[C@@H](O)C[C@]3(C)[C@]2(C(=O)CO)O1` [Triamcinolone acetonide] the “Penetration of triamcinolone acetonide through calf hoof” value [1] was “did not detect the penetration” and the “Effect of N-acetylcysteine on triamcinolone acetonide solubility” value [2] was “did not alter the solubility”.
With `Cc1cc(C2CCCCC2)n(O)c(=O)c1` [Ciclopirox olamine] the “Effect of N-acetylcysteine or urea on ciclopirox olamine solubility” value [3] was “significantly influences the solubility” and the “Diffusion and penetration of ciclopirox olamine through calf hoof” value [4] was “did not detect drug diffusion and penetration”.
